# Measurements as given in patent EP4653437A2 (Innovo Therapeutics Inc., priority 2023, dated 2024).
# Legend:
# human 15-PGDH = target: T1, human 15-PGDH (Homo sapiens, UniProt P15428); test: Evaluation of 15-PGDH inhibitory activity (fluorescence enzyme assay, NAD+/PGE2); assay type: biochemical; settings: human 15-PGDH enzyme, fluorescence Vmax
# T1 construct: purchased R&D System 5660-DH
# T1 sequence (P15428 1-266): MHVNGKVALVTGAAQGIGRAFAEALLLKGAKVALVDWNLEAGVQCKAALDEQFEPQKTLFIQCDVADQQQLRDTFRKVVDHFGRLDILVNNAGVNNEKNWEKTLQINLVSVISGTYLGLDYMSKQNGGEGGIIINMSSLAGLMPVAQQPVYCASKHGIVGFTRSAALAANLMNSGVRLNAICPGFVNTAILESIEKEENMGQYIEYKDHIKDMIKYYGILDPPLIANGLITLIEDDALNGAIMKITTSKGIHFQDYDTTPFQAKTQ
# Method: 15-PGDH inhibition activity of Example compounds was measured as follows. 6.7 ng of human 15-PGDH (R&D System# 5660-DH) enzyme (10 µL) was added to a black 96 well plate, 60 µL of buffer (50 mM Tris-HCl, pH 7.5, 0.01% Tween 20) was added, and 10 µL of 200 µM β-Nicotinamide adenine dinucleotide sodium salt (Sigma, Cat# N0632-5G) was added. 10 µL of (10x) compound solution in DMSO was added and reacted for 10 minutes at room temperature.
# A549 cells = test: Measurement of PGE2-increasing activity in A549 cells (IL-1β stimulated, PGE2 quantified in supernatant); assay type: cell-based; settings: Homo sapiens, 24 h; concentration of 1 µM of each compound; IL-1β treated A549 cells; read-out: Increased PGE2 production in A549 cells
# Procedure, shortened: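 A549 cells grown 24 h in F12K with 10% FBS, then switched to serum-free medium with or without IL-1β and compound (0.1% DMSO final). After 24 h at 37 °C, 5% CO2, supernatant PGE2 quantified by immunoassay.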
structure (smiles),measurement,setting,value
"O=C(c1cnn2c(-c3cc(-c4cnoc4)nc(N4CCOCC4)c3)cccc12)N1CCCCC1 [Example 366, (7-(2-(isoxazol-4-yl)-6-morpholinopyridin-4-yl)pyrazolo[1,5-a]pyridin-3-yl)(piperidin-1-yl)methanone]",IC50,human 15-PGDH,≤ 100 nM
same,fold induction at 1 µM,A549 cells,> 1.5
"O=C(Cc1cccnc1)Nc1c(F)cc(-c2cccc3c(C(=O)N4CCCCC4)cnn23)cc1F [Example 278, N-(2,6-difluoro-4-(3-(piperidine-1-carbonyl)pyrazolo[1,5-a]pyridin-7-yl)phenyl)-2-(pyridin-3-yl)acetamide]",IC50,human 15-PGDH,≤ 100 nM
same,fold induction at 1 µM,A549 cells,> 1.5
"COCCNC(=O)c1cncc(-c2cccc3c(C(=O)N4CCCCC4)cnn23)c1 [Example 45, N-(2-methoxyethyl)-5-(3-(piperidine-1-carbonyl)pyrazolo[1,5-a]pyridin-7-yl)nicotinamide]",IC50,human 15-PGDH,≤ 100 nM
same,fold induction at 1 µM,A549 cells,> 1.5
"O=C(c1cnn2c(-c3ccc(-c4noc(=O)[nH]4)cc3)cccc12)N1CCCCC1 [Example 116, 3-(4-(3-(piperidine-1-carbonyl)pyrazolo[1,5-a]pyridin-7-yl)phenyl)-1,2,4-oxadiazol-5(4H)-one]",IC50,human 15-PGDH,≤ 100 nM
same,fold induction at 1 µM,A549 cells,> 1.5
"O=C(c1cnn2c(-c3cc(F)cc(-c4ncon4)c3)cccc12)N1CCCCC1 [Example 341, (7-(3-fluoro-5-(1,2,4-oxadiazol-3-yl)phenyl)pyrazolo[1,5-a]pyridin-3-yl)(piperidin-1-yl)methanone]",IC50,human 15-PGDH,≤ 100 nM
same,fold induction at 1 µM,A549 cells,> 1.5
"O=C(c1cnn2c(-c3cnc(Cl)nc3)cccc12)N1CCCCC1 [Example 267, (7-(2-chloropyrimidin-5-yl)pyrazolo[1,5-a]pyridin-3-yl)(piperidin-1-yl)methanone]",IC50,human 15-PGDH,≤ 100 nM
same,fold induction at 1 µM,A549 cells,> 1.5
"O=C(O)c1ncc(-c2cccc3c(C(=O)N4CCCCC4)cnn23)cc1Cl [Example 258, 3-chloro-5-[3-(piperidine-1-carbonyl)pyrazolo[1,5-a]pyridin-7-yl]pyridine-2-carboxylic acid]",IC50,human 15-PGDH,≤ 100 nM
same,fold induction at 1 µM,A549 cells,< 1.5
"Nc1ccc(-c2cccc3c(C(=O)N4CCCCC4)cnn23)cn1 [Example 17, (7-(6-aminopyridin-3-yl)pyrazolo[1,5-a]pyridin-3-yl)(piperidin-1-yl)methanone]",IC50,human 15-PGDH,≤ 100 nM
same,fold induction at 1 µM,A549 cells,< 1.5
"CNC(=O)c1ncc(-c2cccc3c(C(=O)N4CCCCC4)cnn23)cc1F [Example 250, 3-fluoro-N-methyl-5-[3-(piperidine-1-carbonyl)pyrazolo[1,5-a]pyridin-7-yl]pyridine-2-carboxamide]",IC50,human 15-PGDH,≤ 100 nM
same,fold induction at 1 µM,A549 cells,> 1.5
"CC1CCCN(C(=O)c2cnn3c(-c4ccc(F)nc4)cccc23)C1 (centres unmarked) [Example 336, (7-(6-fluoropyridin-3-yl)pyrazolo[1,5-a]pyridin-3-yl)(3-methylpiperidin-1-yl)methanone]",IC50,human 15-PGDH,≤ 100 nM
same,fold induction at 1 µM,A549 cells,> 1.5
"Nc1noc2cc(-c3cccc4c(C(=O)N5CCCCC5)cnn34)ccc12 [Example 320, [7-(3-amino-1,2-benzoxazol-6-yl)pyrazolo[1,5-a]pyridin-3-yl]-(1-piperidyl)methanone]",IC50,human 15-PGDH,≤ 100 nM
same,fold induction at 1 µM,A549 cells,> 1.5
"Nc1noc2ccc(-c3cccc4c(C(=O)N5CCCCC5)cnn34)cc12 [Example 259, [7-(3-amino-1,2-benzoxazol-5-yl)pyrazolo[1,5-a]pyridin-3-yl]-(1-piperidyl)methanone]",IC50,human 15-PGDH,≤ 100 nM
same,fold induction at 1 µM,A549 cells,> 1.5
"O=C(Nc1cccc(-c2cccc3c(C(=O)N4CCCCC4)cnn23)c1)c1cccnc1 [Example 95, N-(3-(3-(piperidine-1-carbonyl)pyrazolo[1,5-a]pyridin-7-yl)phenyl)nicotinamide]",IC50,human 15-PGDH,≤ 100 nM
same,fold induction at 1 µM,A549 cells,> 1.5
"O=C(c1cnn2c(-c3ccc(N4CC5CCC4C5)nc3)cccc12)N1CCCCC1 (centres unmarked) [Example 215, (7-(6-(2-azabicyclo[2.2.1]heptan-2-yl)pyridin-3-yl)pyrazolo[1,5-a]pyridin-3-yl)(piperidin-1-yl)methanone]",IC50,human 15-PGDH,≤ 100 nM
same,fold induction at 1 µM,A549 cells,> 1.5
"N#Cc1ncc(-c2ccc(-c3cccc4c(C(=O)N5CCCCC5)cnn34)cc2)cn1 [Example 305, 5-[4-[3-(piperidine-1-carbonyl)pyrazolo[1,5-a]pyridin-7-yl]phenyl]pyrimidine-2-carbonitrile]",IC50,human 15-PGDH,≤ 100 nM
same,fold induction at 1 µM,A549 cells,> 1.5
"Cc1nnc(-c2ccc(-c3cccc4c(C(=O)N5CCCCC5)cnn34)cc2)o1 [Example 348, [7-[4-(5-methyl-1,3,4-oxadiazol-2-yl)phenyl]pyrazolo[1,5-a]pyridin-3-yl]-(1-piperidyl)methanone]",IC50,human 15-PGDH,≤ 100 nM
same,fold induction at 1 µM,A549 cells,> 1.5
"N#CCNC(=O)c1cncc(-c2cccc3c(C(=O)N4CCCCC4)cnn23)c1 [Example 52, N-(cyanomethyl)-5-(3-(piperidine-1-carbonyl)pyrazolo[1,5-a]pyridin-7-yl)nicotinamide]",IC50,human 15-PGDH,≤ 100 nM
same,fold induction at 1 µM,A549 cells,> 1.5
"CCC1CCCN(C(=O)c2cnn3c(-c4ccc5c(c4)C(=O)NC5)cccc23)C1 (centres unmarked) [Example 393, 6-(3-(3-ethylpiperidine-1-carbonyl)pyrazolo[1,5-a]pyridin-7-yl)isoindolin-1-one]",IC50,human 15-PGDH,≤ 100 nM
same,fold induction at 1 µM,A549 cells,> 1.5
"O=C(c1cnn2c(NCCc3ccc(Cl)cc3)cccc12)N1CCCCC1 [Example 242, [7-[2-(4-chlorophenyl)ethylamino]pyrazolo[1,5-a]pyridin-3-yl]-(1-piperidyl)methanone]",IC50,human 15-PGDH,≤ 100 nM
same,fold induction at 1 µM,A549 cells,< 1.5
"O=C(c1cnn2c(-c3cc(-c4cncc(F)c4)nc(N4CCOCC4)c3)cccc12)N1CCCCC1 [Example 376, (7-(5'-fluoro-6-morpholino-[2,3'-bipyridin]-4-yl)pyrazolo[1,5-a]pyridin-3-yl)(piperidin-1-yl)methanone]",IC50,human 15-PGDH,≤ 100 nM
same,fold induction at 1 µM,A549 cells,> 1.5
"O=C(Nc1ccc(-c2cccc3c(C(=O)N4CCCCC4)cnn23)cn1)c1cccnc1 [Example 287, N-(5-(3-(piperidine-1-carbonyl)pyrazolo[1,5-a]pyridin-7-yl)pyridin-2-yl)nicotinamide]",IC50,human 15-PGDH,≤ 100 nM
same,fold induction at 1 µM,A549 cells,> 1.5
"CN(C)C(=O)c1ccc(-c2cccc3c(C(=O)N4CCCCC4)cnn23)cc1 [Example 59, N,N-dimethyl-4-(3-(piperidine-1-carbonyl)pyrazolo[1,5-a]pyridin-7-yl)benzamide]",IC50,human 15-PGDH,≤ 100 nM
same,fold induction at 1 µM,A549 cells,> 1.5
"O=C(c1ccc(-c2cccc3c(C(=O)N4CCCCC4)cnn23)cc1)N1CCNCC1 [Example 66, piperazin-1-yl(4-(3-(piperidine-1-carbonyl)pyrazolo[1,5-a]pyridin-7-yl)phenyl)methanone]",IC50,human 15-PGDH,≤ 100 nM
same,fold induction at 1 µM,A549 cells,> 1.5
"Cc1nc(-c2ncc(-c3cccc4c(C(=O)N5CCCCC5)cnn34)cn2)no1 [Example 317, [7-[2-(5-methyl-1,2,4-oxadiazol-3-yl)pyrimidin-5-yl]pyrazolo[1,5-a]pyridin-3-yl]-(1-piperidyl)methanone]",IC50,human 15-PGDH,≤ 100 nM
same,fold induction at 1 µM,A549 cells,> 1.5
"CN1CCC(NC(=O)c2ccc(-c3cccc4c(C(=O)N5CCCCC5)cnn34)cn2)CC1 [Example 81, N-(1-methylpiperidin-4-yl)-5-(3-(piperidine-1-carbonyl)pyrazolo [1,5-a]pyridin-7-yl)picolinamide]",IC50,human 15-PGDH,≤ 100 nM
same,fold induction at 1 µM,A549 cells,> 1.5
"Cn1ccc(NC(=O)c2cncc(-c3cccc4c(C(=O)N5CCCCC5)cnn34)c2)n1 [Example 193, N-(1-methyl-1H-pyrazol-3-yl)-5-(3-(piperidine-1-carbonyl)pyrazolo[1,5-a]pyridin-7-yl)nicotinamide]",IC50,human 15-PGDH,≤ 100 nM
same,fold induction at 1 µM,A549 cells,> 1.5
"O=C(c1cncc(-c2cccc3c(C(=O)N4CCCCC4)cnn23)c1)N1CC(O)C1 [Example 42, (3-hydroxyazetidin-1-yl)(5-(3-(piperidine-1-carbonyl)pyrazolo[1,5-a]pyridin-7-yl)pyridin-3-yl)methanone]",IC50,human 15-PGDH,≤ 100 nM
same,fold induction at 1 µM,A549 cells,> 1.5
"O=C(c1cnn2c(-c3ccc([N+](=O)[O-])cc3)cccc12)N1CCC(F)CC1 [Example 157, (4-fluoropiperidin-1-yl)(7-(4-nitrophenyl)pyrazolo[1,5-a]pyridin-3-yl)methanone]",IC50,human 15-PGDH,≤ 100 nM
same,fold induction at 1 µM,A549 cells,> 1.5
"COC(=O)c1ncc(-c2cccc3c(C(=O)N4CCCCC4)cnn23)cc1F [Example 244, methyl 3-fluoro-5-[3-(piperidine-1-carbonyl)pyrazolo[1,5-a]pyridin-7-yl]pyridine-2-carboxylate]",IC50,human 15-PGDH,≤ 100 nM
same,fold induction at 1 µM,A549 cells,< 1.5
"O=C(c1cnn2c(-c3cnc(-c4noc(=O)[nH]4)nc3)cccc12)N1CCCCC1 [Example 321, 3-[5-[3-(piperidine-1-carbonyl)pyrazolo[1,5-a]pyridin-7-yl]pyrimidin-2-yl]-4H-1,2,4-oxadiazol-5-one]",IC50,human 15-PGDH,≤ 100 nM
same,fold induction at 1 µM,A549 cells,> 1.5
"O=C(c1cnn2c(-c3cnc(N4CCOC4=O)nc3)cccc12)N1CCCCC1 [Example 308, 3-(5-(3-(piperidine-1-carbonyl)pyrazolo[1,5-a]pyridin-7-yl)pyrimidin-2-yl)oxazolidin-2-one]",IC50,human 15-PGDH,≤ 100 nM
same,fold induction at 1 µM,A549 cells,> 1.5
